From patent publication EP0452101B1, “Spiro bridged and unbridged heterocyclic compounds” (ISRAEL INSTITUTE FOR BIOLOGICAL RESEARCH, priority 1990, dated 1991)
Read-outs that look alike come from different tables or passages of the source.

Experiments:
M2 muscarinic receptors = molecular target: T1, M2 muscarinic receptors (Rattus norvegicus, UniProt P10980); experiment: Displacement of 3H-QNB from rat cerebellum, 50 mM phosphate buffer; format: binding
T1 construct: displacing from rat brain homogenates, cerebellum or frontal cortex; from tissue; host or cells: rat cerebellum homogenates
T1 sequence (P10980 1-466): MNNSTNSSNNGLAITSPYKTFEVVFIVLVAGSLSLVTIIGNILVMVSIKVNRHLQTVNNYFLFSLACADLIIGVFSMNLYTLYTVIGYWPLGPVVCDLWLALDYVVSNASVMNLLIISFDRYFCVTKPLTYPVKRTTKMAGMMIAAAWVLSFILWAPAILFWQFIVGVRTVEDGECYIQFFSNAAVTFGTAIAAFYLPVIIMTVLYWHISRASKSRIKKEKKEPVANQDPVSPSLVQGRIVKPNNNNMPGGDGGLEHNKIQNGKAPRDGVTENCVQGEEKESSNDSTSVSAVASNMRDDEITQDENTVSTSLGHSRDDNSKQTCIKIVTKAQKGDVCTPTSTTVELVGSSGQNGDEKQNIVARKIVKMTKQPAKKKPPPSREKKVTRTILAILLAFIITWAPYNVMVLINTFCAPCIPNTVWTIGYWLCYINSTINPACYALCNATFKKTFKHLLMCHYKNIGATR

[1] = system: AF64A-injected mature rats; experiment: 8-arm radial maze (RAM) in AF64A-treated rats, Part A; format: in vivo; conditions: AF125 0.5 mg./kg. i.p.
Method: This animal model mimics the cholinergic hypofunction and cognitive dysfunction in SDAT (Fisher and Hanin, loc cit; Fisher et al, Neurosci. Lett. 102: 325-331, 1989); the method described in the latter publication was used here.
Forty eight mature male (11-12 months) rats which were used in this study. They were injected icv with AF64A (3 nmole/2 µl./side) 8 months earlier, at the age of three months. One week before the behavioral testing, rats were transferred to individual cages and were food restricted until reaching 90% of their free feeding weight (the rats had free access to water). The room was illuminated 12 hrs a day (6:00 to 18:00) and behavioral testing sessions were carried out during the mornings. After reaching 90% of free feeding weight, rats received about 4 food pellets per day (Altromin, 15 g.) in order to further reduce the rats' weights. Two days before behavioral testing the rats were fed with precision pellets (Bioserv Inc.) which were later used for reinforcement in the maze.
Behavioral tests were conducted in an elevated (70cm) 8-arms radial maze, made of PVC. […]
Due to the size of the batch (48 rats) the experiment was conducted in two phases. […] The correct choices, number of errors and total time scores were analyzed by a 2-way ANOVA (2x2) (Injection-AF64A/saline and Treatment-AF125 0.5 mg./kg./saline).

[2] = molecular target: T2, m4 subtype receptors (PC12 cells) (Rattus norvegicus, UniProt P08485); experiment: Inhibition of adenylate cyclase activity in PC12 cells; format: cell-based; conditions: for EC50: PC12 m4, AC activity; for AC (adenylate cyclase activity): PC12 m4, tested at 1mM
T2 construct: endogenous in cells; host or cells: PC12 cells
T2 sequence (P08485 1-478): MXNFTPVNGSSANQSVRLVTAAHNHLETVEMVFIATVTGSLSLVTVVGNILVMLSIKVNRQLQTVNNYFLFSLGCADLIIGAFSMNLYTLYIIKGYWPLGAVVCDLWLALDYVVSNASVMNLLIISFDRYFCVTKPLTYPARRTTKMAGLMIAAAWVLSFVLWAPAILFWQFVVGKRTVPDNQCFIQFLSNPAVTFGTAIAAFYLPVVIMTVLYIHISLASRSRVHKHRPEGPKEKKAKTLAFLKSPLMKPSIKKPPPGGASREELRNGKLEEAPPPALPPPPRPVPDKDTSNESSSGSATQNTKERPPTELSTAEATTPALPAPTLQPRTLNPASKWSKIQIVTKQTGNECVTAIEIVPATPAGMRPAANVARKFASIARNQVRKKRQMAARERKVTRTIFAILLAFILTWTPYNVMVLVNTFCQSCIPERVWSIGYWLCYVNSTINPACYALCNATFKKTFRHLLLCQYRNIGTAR
Method: The new compounds AF150, AF151, AF150(S) and AF125 were assayed for their ability to stimulate PI in CHO cells transfected with m1 and m3 receptors, respectively (Buck and Fraser, loc cit), and in cultured human neuroblastoma cells, line SK-N-SH, which express mainly the m3 subtype, but not the m1 subtype (Pinkas-Kramarski et al, Neurosci. Lett. 188: 335-340, 1990; Luthin et al Mol. Pharmacol. 34: 327-333, 1988). These compounds were also assayed on cultured PC12 cells which express mainly m4 subtype receptors and are coupled to inhibition of AC activity (Pinkas-Kramarski et al, loc cit).
Stimulation of PI breakdown was assayed using the method described by Stein et al (EMBO J. 7: 3031-3035, 1988), and modulation of AC activity was assayed by the method of Stein et al, loc cit and Pinkas-Kramarski et al (FEBS Lett., 239: 174-178, 1988). […]

| SMILES | Ki (M2 muscarinic receptors; read-out: 3H-QNB-Binding KH2 (c), cerebellum, Table 5) [µM] | Ki (M2 muscarinic receptors; read-out: 3H-QNB-Binding KH (c), cerebellum, Table 4) [µM] | Side-effects [1] | correct choices out of the first eight entries ([1]; AF64A-injected rats) | RATIOS d:c (M2 muscarinic receptors; KL2 : KH2 cerebellum (3H-QNB)) | % H (M2 muscarinic receptors; cerebellum, Table 4) [%] | %L (M2 muscarinic receptors; cerebellum, Table 4) [%] | Ki (M2 muscarinic receptors; cerebellum, Table 4, read-out: 3H-QNB-Binding KH (c)) [µM] | Ki (M2 muscarinic receptors; cerebellum, Table 4, read-out: 3H-QNB-Binding KL (d)) [µM] | % H2 (M2 muscarinic receptors; cerebellum, Table 5) [%] | % L2 (M2 muscarinic receptors; cerebellum, Table 5) [%] | Ki (M2 muscarinic receptors; cerebellum, Table 5, read-out: 3H-QNB-Binding KH2 (c)) [µM] | Ki (M2 muscarinic receptors; cerebellum, Table 5, read-out: 3H-QNB-Binding KL2 (d)) [µM] | EC50 [2] [µM] | AC (adenylate cyclase activity) [2] |
| --- | --- | --- | --- | --- | --- | --- | --- | --- | --- | --- | --- | --- | --- | --- | --- |
| CC1=NCC2(CN3CCC2CC3)O1 (racemic) [AF125, 2-Methyl-spiro(1,3 oxazoline-5,3')quinuclidine] | 3.8 | 3.8 | Only two saline-injected rats treated with AF125 had diarrhoea | 6.53±0.36 | – | – | – | – | – | – | – | – | – | – | – |
| CC1=NCC2(CCN(C)CC2)O1 [AF150, 2-Methyl-spiro(1,3-oxazoline-5,4')-1'-methylpiperidine] | – | – | – | – | 17 | 49 | 51 | 4.5 | 79 | 51 | 49 | 4.9 | 83 | 1 | +++ |
| CC1=NC2(CCN(C)CC2)CO1 [AF151, 1-methylpiperidine-4-spiro-4'-(2'-methyl-1',3'-oxazoline)] | – | – | – | – | – | – | – | – | – | – | – | – | – | 1 | +++ |
